From the OligoGym collection
HELM strings list units from the 5' end as sugar, base in round brackets, then linkage (d deoxyribose, r ribose, m 2'-O-methyl, p phosphodiester). Strings are as the collection lists them, not checked against the first reports. ss, as = sense and antisense strand; [una] = unlocked nucleic acid; [hna] = hexitol nucleic acid; [s4r] = 4'-thioribose; [fl2r] = 2'-fluoro

details: siRNA
Also: test system not given here.

Substance	target mRNA knockdown [%]
RNA1{r(C)p.r(G)p.r(U)p.r(A)p.r(C)p.r(G)p.r(C)p.r(G)p.r(G)p.r(A)p.r(A)p.r(U)p.r(A)p.r(C)p.r(U)p.r(U)p.r(C)p.r(G)p.r(A)p.r(T)p.r(T)}|RNA2{[s4r](U)p.[s4r](C)p.[s4r](G)p.[s4r](A)p.[s4r](A)p.[s4r](G)p.r(U)p.r(A)p.r(U)p.r(U)p.r(C)p.r(C)p.r(G)p.[s4r](C)p.[s4r](G)p.[s4r](U)p.[s4r](A)p.[s4r](C)p.[s4r](G)p.r(T)p.r(T)}$$$RNA1{StrandType:ss}|RNA2{StrandType:as}$	22.8
RNA1{r(C)p.r(G)p.r(A)p.r(G)p.m(U)p.r(G)p.r(U)p.r(C)p.m(U)p.r(A)p.r(A)p.r(C)p.r(G)p.r(G)p.r(G)p.r(A)p.r(G)p.r(C)p.r(C)p.r(T)p.r(T)}|RNA2{r(G)p.r(G)p.r(C)p.r(U)p.r(C)p.r(C)p.r(C)p.r(G)p.r(U)p.m(U)p.r(A)p.r(G)p.r(A)p.m(C)p.r(A)p.r(C)p.r(U)p.r(C)p.r(G)p.r(T)p.r(T)}$$$RNA1{StrandType:ss}|RNA2{StrandType:as}$	65
RNA1{r(C)p.r(G)p.r(U)p.r(A)p.r(C)p.r(G)p.r(C)p.r(G)p.r(G)p.r(A)p.r(A)p.r(U)p.r(A)p.[s4r](C)p.[s4r](U)p.[s4r](U)p.[s4r](C)p.[s4r](G)p.[s4r](A)p.r(T)p.r(T)}|RNA2{r(U)p.r(C)p.r(G)p.r(A)p.r(A)p.r(G)p.r(U)p.r(A)p.r(U)p.r(U)p.r(C)p.r(C)p.r(G)p.r(C)p.r(G)p.r(U)p.r(A)p.r(C)p.r(G)p.r(T)p.r(T)}$$$RNA1{StrandType:ss}|RNA2{StrandType:as}$	93.8
RNA1{m(U)p.r(A)p.m(A)p.r(A)p.m(C)p.r(U)p.m(U)p.r(U)p.m(G)p.r(G)p.m(G)p.r(G)p.m(A)p.r(A)p.m(G)p.r(G)p.m(G)p.r(A)p.m(G)p.r(T)p.r(T)}|RNA2{r(C)p.r(U)p.r(C)p.r(C)p.r(C)p.r(U)p.r(U)p.r(C)p.r(C)p.r(C)p.r(C)p.r(A)p.r(A)p.r(A)p.r(G)p.r(U)p.r(U)p.r(U)p.r(A)p.r(T)p.r(T)}$$$RNA1{StrandType:ss}|RNA2{StrandType:as}$	34
RNA1{r(G)p.r(A)p.r(C)p.r(G)p.r(U)p.r(A)p.r(A)p.r(A)p.r(C)p.r(G)p.r(G)p.r(C)p.r(C)p.r(A)p.r(C)p.r(A)p.r(A)p.r(G)p.[hna](U)p.[hna](U)p.r(C)}|RNA2{r(A)p.r(C)p.r(U)p.r(U)p.r(G)p.r(U)p.r(G)p.r(G)p.r(C)p.r(C)p.r(G)p.r(U)p.r(U)p.r(U)p.r(A)p.r(C)p.r(G)p.r(U)p.r(C)p.r(G)p.r(C)}$$$RNA1{StrandType:ss}|RNA2{StrandType:as}$	88.7
RNA1{[s4r](C)p.[s4r](G)p.[s4r](U)p.[s4r](A)p.r(C)p.r(G)p.r(C)p.r(G)p.r(G)p.r(A)p.r(A)p.r(U)p.r(A)p.r(C)p.r(U)p.r(U)p.r(C)p.r(G)p.r(A)p.r(T)p.r(T)}|RNA2{[s4r](U)p.[s4r](C)p.r(G)p.r(A)p.r(A)p.r(G)p.r(U)p.r(A)p.r(U)p.r(U)p.r(C)p.r(C)p.r(G)p.r(C)p.r(G)p.r(U)p.r(A)p.[s4r](C)p.[s4r](G)p.r(T)p.r(T)}$$$RNA1{StrandType:ss}|RNA2{StrandType:as}$	85.4
RNA1{r(G)p.r(U)p.r(A)p.r(U)p.r(G)p.r(A)p.r(C)p.r(C)p.r(G)p.r(A)p.r(C)p.r(U)p.r(A)p.r(C)p.r(G)p.r(C)p.r(G)p.r(U)p.r(A)p.r(T)p.r(T)}|RNA2{r(U)p.r(U)p.r(C)p.r(A)p.r(G)p.r(U)p.[una](G)p.r(U)p.r(G)p.r(A)p.r(U)p.r(G)p.r(A)p.r(C)p.r(A)p.r(C)p.r(U)p.r(U)p.r(G)p.r(T)p.r(T)}$$$RNA1{StrandType:ss}|RNA2{StrandType:as}$	86
RNA1{m(G)p.r(A)p.m(A)p.r(G)p.m(A)p.r(G)p.m(C)p.r(C)p.m(U)p.r(A)p.m(C)p.r(A)p.m(C)p.r(A)p.m(A)p.r(C)p.m(C)p.r(C)p.m(U)p.r(T)p.r(T)}|RNA2{r(A)p.m(G)p.m(G)p.m(G)p.r(U)p.r(U)p.m(G)p.r(U)p.m(G)p.r(U)p.r(A)p.m(G)p.m(G)p.r(C)p.r(U)p.r(C)p.r(U)p.r(U)p.r(C)p.r(T)p.r(T)}$$$RNA1{StrandType:ss}|RNA2{StrandType:as}$	43
RNA1{r(A)p.r(G)p.r(A)p.r(A)p.r(G)p.[fl2r](U)p.r(A)p.r(C)p.[fl2r](C)p.r(A)p.r(G)p.r(G)p.r(A)p.r(G)p.r(G)p.r(C)p.r(G)p.r(U)p.r(U)p.r(T)p.r(T)}|RNA2{r(A)p.r(A)p.r(C)p.r(G)p.r(C)p.r(C)p.r(U)p.r(C)p.r(C)p.[fl2r](U)p.r(G)p.r(G)p.[fl2r](U)p.r(A)p.r(C)p.r(U)p.r(U)p.r(C)p.r(U)p.r(T)p.r(T)}$$$RNA1{StrandType:ss}|RNA2{StrandType:as}$	57
RNA1{r(C)p.r(G)p.r(G)p.r(G)p.r(U)p.r(A)p.r(C)p.r(G)p.r(A)p.r(G)p.r(C)p.r(C)p.r(G)p.r(G)p.r(A)p.r(A)p.r(C)p.r(C)p.r(U)p.r(T)p.r(T)}|RNA2{r(A)p.r(G)p.r(G)p.r(U)p.r(U)p.r(C)p.r(C)p.r(G)p.r(G)p.r(C)p.r(U)p.r(C)p.r(G)p.[fl2r](U)p.r(A)p.r(C)p.r(C)p.r(C)p.r(G)p.r(T)p.r(T)}$$$RNA1{StrandType:ss}|RNA2{StrandType:as}$	69
RNA1{m(A)p.r(A)p.m(A)p.r(G)p.m(C)p.r(G)p.m(G)p.r(U)p.m(G)p.r(G)p.m(A)p.r(U)p.m(C)p.r(A)p.m(G)p.r(C)p.m(U)p.r(C)p.m(U)p.r(T)p.r(T)}|RNA2{r(A)p.m(G)p.r(A)p.m(G)p.r(C)p.r(U)p.r(G)p.r(A)p.r(U)p.r(C)p.r(C)p.r(A)p.r(C)p.r(C)p.m(G)p.r(C)p.r(U)p.r(U)p.r(U)p.r(T)p.r(T)}$$$RNA1{StrandType:ss}|RNA2{StrandType:as}$	43
RNA1{m(C)p.r(C)p.m(U)p.r(C)p.m(G)p.r(G)p.m(A)p.r(G)p.m(A)p.r(G)p.m(U)p.r(U)p.m(C)p.r(U)p.m(A)p.r(C)p.m(U)p.r(C)p.r(U)p.r(T)p.r(T)}|RNA2{r(A)p.r(G)p.r(A)p.r(G)p.r(U)p.r(A)p.r(G)p.r(A)p.r(A)p.r(C)p.r(U)p.r(C)p.r(U)p.r(C)p.r(C)p.r(G)p.r(A)p.r(G)p.r(G)p.r(T)p.r(T)}$$$RNA1{StrandType:ss}|RNA2{StrandType:as}$	34
RNA1{r(C)p.r(C)p.r(G)p.r(C)p.r(C)p.r(C)p.r(G)p.r(G)p.r(C)p.r(G)p.r(G)p.r(C)p.r(G)p.r(C)p.r(C)p.r(U)p.r(U)p.r(U)p.m(A)p.r(T)p.r(T)}|RNA2{m(U)p.m(A)p.r(A)p.r(A)p.r(G)p.r(G)p.r(C)p.r(G)p.r(C)p.r(C)p.r(G)p.r(C)p.r(C)p.r(G)p.r(G)p.r(G)p.r(C)p.r(G)p.r(G)p.r(T)p.r(T)}$$$RNA1{StrandType:ss}|RNA2{StrandType:as}$	82
RNA1{[fl2r](C)p.r(G)p.[fl2r](A)p.r(C)p.[fl2r](G)p.r(A)p.[fl2r](U)p.r(U)p.[fl2r](C)p.r(U)p.[fl2r](U)p.r(C)p.[fl2r](U)p.r(A)p.[fl2r](C)p.r(U)p.[fl2r](C)p.r(A)p.[fl2r](A)p.r(T)p.r(T)}|RNA2{r(U)p.r(U)p.r(G)p.r(A)p.r(G)p.r(U)p.r(A)p.r(G)p.r(A)p.r(A)p.r(G)p.r(A)p.r(A)p.r(U)p.r(C)p.r(G)p.r(U)p.r(C)p.r(G)p.r(T)p.r(T)}$$$RNA1{StrandType:ss}|RNA2{StrandType:as}$	56
RNA1{r(G)p.r(A)p.r(A)p.r(G)p.r(A)p.r(G)p.r(U)p.m(U)p.r(A)p.r(A)p.r(C)p.r(C)p.r(C)p.r(G)p.r(G)p.r(G)p.r(A)p.r(C)p.r(U)p.r(T)p.r(T)}|RNA2{r(A)p.r(G)p.r(U)p.r(C)p.r(C)p.r(C)p.r(G)p.r(G)p.r(G)p.r(U)p.m(U)p.r(A)p.r(A)p.r(C)p.r(U)p.r(C)p.r(U)p.r(U)p.r(C)p.r(T)p.r(T)}$$$RNA1{StrandType:ss}|RNA2{StrandType:as}$	51
RNA1{r(C)p.r(G)p.r(U)p.r(A)p.r(C)p.r(G)p.r(C)p.r(G)p.r(G)p.r(A)p.r(A)p.r(U)p.r(A)p.r(C)p.r(U)p.r(U)p.r(C)p.r(G)p.r(A)p.r(T)p.r(T)}|RNA2{[s4r](U)p.[s4r](C)p.[s4r](G)p.[s4r](A)p.r(A)p.r(G)p.r(U)p.r(A)p.r(U)p.r(U)p.r(C)p.r(C)p.r(G)p.r(C)p.r(G)p.r(U)p.r(A)p.r(C)p.r(G)p.r(T)p.r(T)}$$$RNA1{StrandType:ss}|RNA2{StrandType:as}$	76.7
RNA1{r(A)p.r(G)p.r(C)p.r(G)p.r(A)p.r(U)p.r(C)p.r(C)p.r(C)p.m(G)p.r(A)p.r(A)p.m(C)p.r(A)p.r(A)p.r(G)p.m(U)p.r(A)p.r(U)p.r(T)p.r(T)}|RNA2{r(A)p.m(U)p.r(A)p.r(C)p.r(U)p.m(U)p.r(G)p.r(U)p.r(U)p.r(C)p.r(G)p.r(G)p.r(G)p.r(A)p.r(U)p.r(C)p.r(G)p.r(C)p.r(U)p.r(T)p.r(T)}$$$RNA1{StrandType:ss}|RNA2{StrandType:as}$	84
RNA1{r(C)p.r(C)p.r(C)p.r(C)p.m(A)p.m(G)p.m(G)p.m(U)p.m(A)p.m(A)p.m(C)p.r(G)p.r(A)p.r(U)p.r(U)p.r(U)p.r(U)p.r(C)p.r(U)p.r(T)p.r(T)}|RNA2{r(A)p.r(G)p.r(A)p.r(A)p.r(A)p.r(A)p.r(U)p.r(C)p.r(G)p.r(U)p.r(U)p.r(A)p.r(C)p.r(C)p.r(U)p.r(G)p.r(G)p.r(G)p.r(G)p.r(T)p.r(T)}$$$RNA1{StrandType:ss}|RNA2{StrandType:as}$	79
RNA1{m(A)p.m(A)p.r(C)p.r(C)p.r(C)p.m(A)p.r(C)p.r(C)p.m(A)p.r(C)p.m(A)p.r(G)p.r(C)p.r(U)p.m(A)p.r(G)p.m(A)p.m(A)p.r(C)p.m(U)p.m(U)}|RNA2{r(A)p.r(A)p.r(G)p.r(U)p.r(U)p.r(C)p.r(U)p.r(A)p.r(G)p.r(C)p.r(U)p.r(G)p.r(U)p.r(G)p.r(G)p.r(U)p.r(G)p.r(G)p.r(G)p.r(U)p.r(U)}$$$RNA1{StrandType:ss}|RNA2{StrandType:as}$	42
RNA1{[s4r](C)p.[s4r](G)p.[s4r](U)p.[s4r](A)p.[s4r](C)p.[s4r](G)p.r(C)p.r(G)p.r(G)p.r(A)p.r(A)p.r(U)p.r(A)p.[s4r](C)p.[s4r](U)p.[s4r](U)p.[s4r](C)p.[s4r](G)p.[s4r](A)p.r(T)p.r(T)}|RNA2{r(U)p.r(C)p.r(G)p.r(A)p.r(A)p.r(G)p.r(U)p.r(A)p.r(U)p.r(U)p.r(C)p.r(C)p.r(G)p.r(C)p.r(G)p.[s4r](U)p.[s4r](A)p.[s4r](C)p.[s4r](G)p.r(T)p.r(T)}$$$RNA1{StrandType:ss}|RNA2{StrandType:as}$	44.4
